Reference: patent publication US11247965B2 (VenatoRx Pharmaceuticals, Inc., priority 2017, dated 2022)

Columns and labels:
[1] = test system: HBV replication in HepAD38 cells; assay: Anti-HBV activity in HepAD38 cells, extracellular HBV DNA by QPCR; type: cell-based, HBV (genotype D, serotype ayw); conditions: Hepatitis B virus, HePAD38, 168 h, read-out: Anti-HBV EC50, HepAD38 cells, extracellular HBV DNA by QPCR, 7 days of incubation
Procedure, shortened: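 Seven-day compound exposure (30 μM down to 10 nM, half-log steps) after tetracycline withdrawal induced HBV replication in HepAD38 cells. Extracellular viral DNA measured by QPCR (copies/mL via standard curve), normalised to DMSO wells; EC50 from 4-parameter non-linear regression.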

[2] = In vitro cytotoxicity, MTT cell viability assay in HepG2 cells; type: cell-based; conditions: human, Cytotoxicity CC50
Procedure, shortened: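 CC50 values reflect loss of HepG2 viability after a 7-day exposure at 37 °C, 5% CO2. After 3-4 h with MTT, solubilized formazan was quantified at 492 nm relative to vehicle wells.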

| SMILES | EC50 [1] [µM] | CC50 at 7 days [2] [µM] |
| --- | --- | --- |
| Cc1cc(NC(=O)c2ccc(F)c(C(F)(F)C(=O)N3[C@H](C)CN(S(=O)(=O)C4CC4)C[C@@H]3C)c2)ccc1F [Example 292, 3-(2-((2S,6R)-4-(cyclopropylsulfonyl)-2,6-dimethylpiperazin-1-yl)-1,1-difluoro-2-oxoethyl)-4-fluoro-N-(4-fluoro-3-methylphenyl)benzamide] | < 5 | 5 to 30 |
| Cc1cc(NC(=O)c2ccc(F)c(C(F)(F)C(=O)N3[C@H](C)CN(S(C)(=O)=O)C[C@@H]3C)c2)ccc1F [Example 293, 3-(2-((2S,6R)-2,6-dimethyl-4-(methylsulfonyl)piperazin-1-yl)-1,1-difluoro-2-oxoethyl)-4-fluoro-N-(4-fluoro-3-methylphenyl)benzamide] | < 5 | 5 to 30 |
| CC(=O)N1C[C@@H](C)N(C(=O)C(F)(F)c2cc(C(=O)Nc3ccc(F)c(C)c3)ccc2F)[C@@H](C)C1 [Example 294, 3-(2-((2S,6R)-4-acetyl-2,6-dimethylpiperazin-1-yl)-1,1-difluoro-2-oxoethyl)-4-fluoro-N-(4-fluoro-3-methylphenyl)benzamide] | < 5 | 5 to 30 |
| CC(=O)N1[C@H](C)CN(C(=O)C(F)(F)c2cc(C(=O)Nc3ccc(F)c(C)c3)ccc2F)C[C@@H]1C [Example 295, 3-(2-((3R,5S)-4-acetyl-3,5-dimethylpiperazin-1-yl)-1,1-difluoro-2-oxoethyl)-4-fluoro-N-(4-fluoro-3-methylphenyl)benzamide] | < 5 | 5 to 30 |
| Cc1cc(NC(=O)c2ccc(F)c(C(F)(F)C(=O)N3C[C@@H](C)N[C@@H](C)C3)c2)ccc1F [Example 296, 3-(2-((3R,5S)-3,5-dimethylpiperazin-1-yl)-1,1-difluoro-2-oxoethyl)-4-fluoro-N-(4-fluoro-3-methylphenyl)benzamide] | < 5 | 5 to 30 |
| Cc1cc(NC(=O)c2ccc(F)c(C(F)(F)C(=O)N3CCn4nncc4C3)c2)ccc1F [Example 297, 3-(2-(6,7-dihydro-[1,2,3]triazolo[1,5-a]pyrazin-5(4H)-yl)-1,1-difluoro-2-oxoethyl)-4-fluoro-N-(4-fluoro-3-methylphenyl)benzamide] | < 5 | 5 to 30 |
| Cc1cc(NC(=O)c2ccc([N+](=O)[O-])c(C(F)(F)C(=O)N3CCC(O)CC3)c2)ccc1F [Example 298, 3-(1,1-difluoro-2-(4-hydroxypiperidin-1-yl)-2-oxoethyl)-N-(4-fluoro-3-methylphenyl)-4-nitrobenzamide] | < 5 | 5 to 30 |
| Cc1cc(NC(=O)c2ccc(N)c(C(F)(F)C(=O)N3CCC(O)CC3)c2)ccc1F [Example 299, 4-amino-3-(1,1-difluoro-2-(4-hydroxypiperidin-1-yl)-2-oxoethyl)-N-(4-fluoro-3-methylphenyl)benzamide] | < 5 | 5 to 30 |
| Cc1cc(NC(=O)c2ccc(F)c(C(F)(F)C(=O)N3CCC(O)CC3)n2)ccc1F [Example 300, 6-(1,1-difluoro-2-(4-hydroxypiperidin-1-yl)-2-oxoethyl)-5-fluoro-N-(4-fluoro-3-methylphenyl)picolinamide] | < 5 | 5 to 30 |
| Cc1cc(NC(=O)c2ccc(F)c(C(F)(F)C(=O)N3CCC(NC(=O)CN4CCC(O)CC4)C(C)(C)C3)c2)ccc1F (stereo not shown) [Example 301, 3-(1,1-difluoro-2-(4-(2-(4-hydroxypiperidin-1-yl)acetamido)-3,3-dimethylpiperidin-1-yl)-2-oxoethyl)-4-fluoro-N-(4-fluoro-3-methylphenyl)benzamide] | < 5 | 5 to 30 |
| CNCC(=O)NC1CCN(C(=O)C(F)(F)c2nc(C(=O)Nc3ccc(F)c(C)c3)ccc2F)CC1(C)C (stereo not shown) [Example 302, 6-(2-(3,3-dimethyl-4-(2-(methylamino)acetamido)piperidin-1-yl)-1,1-difluoro-2-oxoethyl)-5-fluoro-N-(4-fluoro-3-methylphenyl)picolinamide] | < 5 | 5 to 30 |
| Cc1cc(NC(=O)c2ccc(F)c(C(F)(F)C(=O)N3CCc4nc(N)sc4C3)n2)ccc1F [Example 303, 6-(2-(2-amino-6,7-dihydrothiazolo[5,4-c]pyridin-5(4H)-yl)-1,1-difluoro-2-oxoethyl)-5-fluoro-N-(4-fluoro-3-methylphenyl)picolinamide] | < 5 | 5 to 30 |
| Cc1cc(NC(=O)c2ccc(F)c(C(F)(F)C(=O)N3CCC(N)C(C)(C)C3)n2)ccc1F (stereo not shown) [Example 304, 6-(2-(4-amino-3,3-dimethylpiperidin-1-yl)-1,1-difluoro-2-oxoethyl)-5-fluoro-N-(4-fluoro-3-methylphenyl)picolinamide] | < 5 | 5 to 30 |
| CC(=O)NC1CCN(C(=O)C(F)(F)c2nc(C(=O)Nc3ccc(F)c(C)c3)ccc2F)CC1(C)C (stereo not shown) [Example 305, 6-(2-(4-acetamido-3,3-dimethylpiperidin-1-yl)-1,1-difluoro-2-oxoethyl)-5-fluoro-N-(4-fluoro-3-methylphenyl)picolinamide] | < 5 | 5 to 30 |
| Cc1cc(NC(=O)c2ccc(F)c(C(F)(F)C(=O)N3[C@@H]4COC[C@H]3C[C@H](NS(C)(=O)=O)C4)c2)ccc1F [Example 306, 3-(1,1-difluoro-2-((1R,5S,7r)-7-(methylsulfonamido)-3-oxa-9-azabicyclo[3.3.1]nonan-9-yl)-2-oxoethyl)-4-fluoro-N-(4-fluoro-3-methylphenyl)benzamide] | < 5 | 5 to 30 |
| COC(=O)N[C@@H]1C[C@H]2COC[C@@H](C1)N2C(=O)C(F)(F)c1cc(C(=O)Nc2ccc(F)c(C)c2)ccc1F [Example 307, methyl ((1R,5S,7r)-9-(2,2-difluoro-2-(2-fluoro-5-((4-fluoro-3-methylphenyl)carbamoyl)phenyl)acetyl)-3-oxa-9-azabicyclo[3.3.1]nonan-7-yl)carbamate] | < 5 | 5 to 30 |
| Cc1cc(NC(=O)c2ccc(F)c(C(F)(F)C(=O)N3CCc4sc(N)nc4C3)c2)ccc1F [Example 308, 3-(2-(2-amino-6,7-dihydrothiazolo[4,5-c]pyridin-5(4H)-yl)-1,1-difluoro-2-oxoethyl)-4-fluoro-N-(4-fluoro-3-methylphenyl)benzamide] | < 5 | 5 to 30 |
| Cc1cc(NC(=O)c2ccc(F)c(C(F)(F)C(=O)Nc3nc4c(s3)CCNC4)c2)ccc1F [Example 309, 3-(1,1-difluoro-2-oxo-2-((4,5,6,7-tetrahydrothiazolo[4,5-c]pyridin-2-yl)amino)ethyl)-4-fluoro-N-(4-fluoro-3-methylphenyl)benzamide] | 5 to 30 | 5 to 30 |
| Cc1cc(NC(=O)c2ccc(F)c(C(F)(F)C(=O)N3CC4COCC(C3)C4O)c2)ccc1F (stereo not shown) [Example 310, 3-(1,1-difluoro-2-(9-hydroxy-3-oxa-7-azabicyclo[3.3.1]nonan-7-yl)-2-oxoethyl)-4-fluoro-N-(4-fluoro-3-methylphenyl)benzamide] | < 5 | > 30 |
| CC(=O)NC1CCN(C(=O)C(F)(F)c2cc(C(=O)Nc3ccc(F)c(C)c3)ccc2N)CC1(C)C (stereo not shown) [Example 311, 3-(2-(4-acetamido-3,3-dimethylpiperidin-1-yl)-1,1-difluoro-2-oxoethyl)-4-amino-N-(4-fluoro-3-methylphenyl)benzamide] | < 5 | > 30 |
| CC(=O)N[C@H]1CCN(C(=O)C(F)(F)c2cc(C(=O)Nc3ccc(F)c(C)c3)ccc2F)CC1(C)C [Example 327, (S)-3-(2-(4-acetamido-3,3-dimethylpiperidin-1-yl)-1,1-difluoro-2-oxoethyl)-4-fluoro-N-(4-fluoro-3-methylphenyl)benzamide] | < 5 | > 30 |
| Cc1cc(NC(=O)c2ccc(F)c(C(F)(F)C(=O)N3CCC(N)C(F)(F)C3)c2)ccc1F (stereo not shown) [Example 334, 3-(2-(4-amino-3,3-difluoropiperidin-1-yl)-1,1-difluoro-2-oxoethyl)-4-fluoro-N-(4-fluoro-3-methylphenyl)benzamide] | < 5 | 5 to 30 |
| Cc1cc(NC(=O)c2ccc(F)c(C(F)(F)C(=O)N3CCC(NS(C)(=O)=O)C(F)(F)C3)c2)ccc1F (stereo not shown) [Example 335, 3-(2-(3,3-difluoro-4-(methylsulfonamido)piperidin-1-yl)-1,1-difluoro-2-oxoethyl)-4-fluoro-N-(4-fluoro-3-methylphenyl)benzamide] | < 5 | > 30 |
| Cc1cc(NC(=O)c2ccc(F)c(C(F)(F)C(=O)N3[C@@H]4CCC[C@H]3C[C@@H](NS(C)(=O)=O)C4)c2)ccc1F [Example 336, 3-(1,1-difluoro-2-((1R,3r,5S)-3-(methylsulfonamido)-9-azabicyclo[3.3.1]nonan-9-yl)-2-oxoethyl)-4-fluoro-N-(4-fluoro-3-methylphenyl)benzamide] | < 5 | > 30 |
| Cc1cc(NC(=O)c2ccc(F)c(C(F)(F)C(=O)N3[C@@H]4CCC[C@H]3C[C@H](N)C4)c2)ccc1F [Example 337, 3-(2-((1R,3s,5S)-3-amino-9-azabicyclo[3.3.1]nonan-9-yl)-1,1-difluoro-2-oxoethyl)-4-fluoro-N-(4-fluoro-3-methylphenyl)benzamide] | < 5 | 5 to 30 |
| Cc1cc(NC(=O)c2ccc(F)c(C(F)(F)C(=O)N3[C@@H]4CCC[C@H]3C[C@H](NS(C)(=O)=O)C4)c2)ccc1F [Example 338, 3-(1,1-difluoro-2-((1R,3s,5S)-3-(methylsulfonamido)-9-azabicyclo[3.3.1]nonan-9-yl)-2-oxoethyl)-4-fluoro-N-(4-fluoro-3-methylphenyl)benzamide] | < 5 | 5 to 30 |
